Source: publication PMC9719539, “Single-molecule characterization of subtype-specific β1 integrin mechanics” (Nature Communications, 2022)

Experiments:
BJ-5ta cells [1] = test: Percentage of spread cells / cell spreading on TGT surfaces; assay type: cell-based, human
Description: Glass coverslips were densely PEGylated to minimize non-specific interactions such as the binding of cell-secreted extracellular matrix proteins. Coverslips cleaned by piranha etching solution (a 3:1 mixture of sulfuric acid and hydrogen peroxide) were incubated in silanization solution (UCT, 1760-24-3; 2% aminosilane and 5% acetic acid in methanol) for 30 min and reacted with a mixture of Polyethylene glycol (PEG) with and without biotin (1:19, 150 mg/ml; Laysan Bio, Biotin-PEG-SVA-5000 and MPEG-SVA-5000) for 4 h. Surfaces were washed thoroughly and dried using nitrogen gas after each step. A 3D-printed dish (PLA) or a silicon gasket (Grace Bio Labs, 103280) was attached to the coverslip to form a dish. Neutravidin (Thermo Fisher scientific, 31000; 0.4 mg/ml) was added to the dish for 10 min and washed out thoroughly. The dish was emptied and a droplet (3 µL) of TGT solution (100 nM unless specified otherwise) was placed on the coverslip for 10 min in a humid condition to locally immobilize TGT. For the lateral drift correction for time-resolved TGT rupture analysis, biotin-coated gold nanoparticles (Luna Nanotech, GNP-BIOT-100-2-04; 100 nm) were sparsely immobilized as fiducial markers. For protein ligand coating, protein (50 ug/ml in PBS) was incubated in glass bottomed imaging dishes for 1 h at RT without additional passivation.
The cells were gently harvested by washing in PBS for 1 min, incubating with 0.05% trypsin for 3 min, and then neutralizing with cell culture medium (FBS 10%). The cells were spun down and resuspended with Leibovitz’s L-15 Medium (Gibco, 21083027) supplemented with 2 g/L glucose, then seeded on the TGT surface at an approximate density of 30 cells/mm^2. For integrin inhibition experiments, cells were incubated with Fab for 5 min before seeding. For cell immobilization experiments, cells were incubated with 1 nM Cholesterol-PEG-Biotin (Nanosoft Polymers, 3084-2000) for 5 min, followed by washes by centrifugation to remove biotin in solution before seeding. The imaging area was humidified and the temperature was maintained at 37 °C. A Nikon Eclipse Ti microscope equipped with Xenon arc lamp, Nikon perfect focus system, custom total internal reflection fluorescence microscopy (TIRFM) module, and custom reflection interference contrast microscopy (RICM) module was driven by Elements software. Dark regions in RICM show where cells have closely adhered to the surface (≪300 nm gap). Nikon 10X objective (CFI60 Plan Fluor) and 60X objective (CFI60 Apochromat TIRF) with DIC filter sets were used. […] Images were recorded using an electron-multiplying charge-coupled device (EMCCD; Andor iXon 888).
Single-cell data were obtained from multiple independent sample preparations for each condition as specified. Percentage of spread cells was obtained from three independent experiments. Statistical analyses were performed using MATLAB software. Two-sided (two sample) t-test was used for two group comparisons. Each group was compared with the control group unless specified otherwise. Representative micrographs are selected from at least two independent experiments.

[2] = system: extended-open β1 integrin on BJ-5ta cells; test: β1 integrin activation: number and density of bound AF647-12G10 Fab on biotin-PEG-cholesterol immobilized cells; assay type: cell-based, human
Description: Cholesterol (CLS) linked to biotin with PEG (~13 nm) immobilizes cells on neutravidin and TGT-coated surfaces. b Cell images and AF647-12G10 Fab (20 nM) signal 1 h after seeding. Scale bar, 10 µm. c–e Cell area and 12G10 Fab signal were measured 30 min after seeding (n = 43, 55, 62, 69, 21, 29; 83, 59, 83, 92, 68, 62 cells from two independent experiments). c Close-contact enclosed area of cells. […] Fluorescent Fab signal was calibrated by analyzing stepwise signal increase due to nonspecific Fab binding to surfaces outside the area imaged with cells (Supplementary Fig. 4a). e Density of 12G10 Fab for each cell. Lines show mean ± SE. Two-sided t-test for p-values. Not significant (ns), p > 0.05.
The cells were gently harvested by washing in PBS for 1 min, incubating with 0.05% trypsin for 3 min, and then neutralizing with cell culture medium (FBS 10%). […] A Nikon Eclipse Ti microscope equipped with Xenon arc lamp, Nikon perfect focus system, custom total internal reflection fluorescence microscopy (TIRFM) module, and custom reflection interference contrast microscopy (RICM) module was driven by Elements software. […] Images were recorded using an electron-multiplying charge-coupled device (EMCCD; Andor iXon 888). […]

BJ-5ta cells [3] = test: Percentage of cells producing rupture signals on RGD-12pN with or without soluble cRGDfK; assay type: cell-based, human; details: RGD-12pN (BHQ2-Cy3, 100 nM); soluble ligand 100 µM; n = 4
Source text: Source data are provided as a Source Data file. […]

[4] = molecular target: T1, EO state of integrin αVβ1 (Homo sapiens, UniProt P05556+P06756); test: Intrinsic affinity for EO state of αVβ1 stabilized by 12G10 Fab; assay type: binding; details: 2 µM 12G10 Fab versus basal
T1 construct: expressed in transfected cells
T1 sequence (P06756 31-889 limits assumed): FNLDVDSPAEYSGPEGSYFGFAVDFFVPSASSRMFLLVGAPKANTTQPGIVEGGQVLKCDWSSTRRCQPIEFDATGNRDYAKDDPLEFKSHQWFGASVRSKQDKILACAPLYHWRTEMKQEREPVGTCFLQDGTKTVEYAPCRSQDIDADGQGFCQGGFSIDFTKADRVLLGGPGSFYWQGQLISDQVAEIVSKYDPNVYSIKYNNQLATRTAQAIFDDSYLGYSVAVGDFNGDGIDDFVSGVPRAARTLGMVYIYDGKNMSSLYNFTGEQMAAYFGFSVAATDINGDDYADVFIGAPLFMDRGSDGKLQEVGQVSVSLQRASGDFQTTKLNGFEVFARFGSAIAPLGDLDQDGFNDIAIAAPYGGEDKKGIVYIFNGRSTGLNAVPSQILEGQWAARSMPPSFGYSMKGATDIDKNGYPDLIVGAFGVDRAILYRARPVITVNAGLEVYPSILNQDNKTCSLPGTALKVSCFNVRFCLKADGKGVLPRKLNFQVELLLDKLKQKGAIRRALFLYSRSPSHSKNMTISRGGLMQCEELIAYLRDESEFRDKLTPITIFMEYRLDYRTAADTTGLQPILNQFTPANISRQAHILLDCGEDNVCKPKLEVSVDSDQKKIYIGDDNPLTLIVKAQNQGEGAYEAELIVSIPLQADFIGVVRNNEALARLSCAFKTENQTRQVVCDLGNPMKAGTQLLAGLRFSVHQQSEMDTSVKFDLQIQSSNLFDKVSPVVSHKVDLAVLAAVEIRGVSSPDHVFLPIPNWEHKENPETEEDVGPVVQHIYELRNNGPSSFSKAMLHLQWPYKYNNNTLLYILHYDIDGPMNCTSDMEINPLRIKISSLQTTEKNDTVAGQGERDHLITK
T1 sequence (P06756 891-1048 partner limits assumed): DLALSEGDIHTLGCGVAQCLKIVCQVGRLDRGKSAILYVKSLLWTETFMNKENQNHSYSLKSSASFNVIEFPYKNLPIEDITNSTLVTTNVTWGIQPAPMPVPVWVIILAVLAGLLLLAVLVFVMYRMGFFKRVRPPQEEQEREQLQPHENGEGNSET
T1 sequence (P05556 21-798): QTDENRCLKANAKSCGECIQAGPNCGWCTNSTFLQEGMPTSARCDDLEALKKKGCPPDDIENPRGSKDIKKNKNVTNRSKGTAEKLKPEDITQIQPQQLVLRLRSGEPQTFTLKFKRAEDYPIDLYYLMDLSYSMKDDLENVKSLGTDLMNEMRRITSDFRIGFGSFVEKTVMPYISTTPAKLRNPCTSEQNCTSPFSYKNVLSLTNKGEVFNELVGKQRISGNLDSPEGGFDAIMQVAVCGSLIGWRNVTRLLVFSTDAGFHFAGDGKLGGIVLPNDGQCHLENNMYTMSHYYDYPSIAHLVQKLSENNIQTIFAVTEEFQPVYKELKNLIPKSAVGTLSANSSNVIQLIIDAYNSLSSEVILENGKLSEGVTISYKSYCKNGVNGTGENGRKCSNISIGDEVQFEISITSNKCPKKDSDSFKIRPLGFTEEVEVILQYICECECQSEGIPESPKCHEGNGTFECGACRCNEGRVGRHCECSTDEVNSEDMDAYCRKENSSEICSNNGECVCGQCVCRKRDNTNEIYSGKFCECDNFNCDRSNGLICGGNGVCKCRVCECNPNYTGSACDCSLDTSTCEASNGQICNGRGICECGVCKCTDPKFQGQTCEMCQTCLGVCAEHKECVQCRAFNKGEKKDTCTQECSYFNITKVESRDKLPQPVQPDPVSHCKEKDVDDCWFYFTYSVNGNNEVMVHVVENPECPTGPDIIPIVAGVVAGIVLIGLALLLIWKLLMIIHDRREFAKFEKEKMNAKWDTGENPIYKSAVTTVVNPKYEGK
Source text: (§1) provided as a Source Data file.
(§2) (3 pictures or pasted objects on this page, not shown here)

[5] = molecular target: T2, EO state of integrin α5β1 (Homo sapiens, UniProt P05556+P08648); test: Intrinsic affinity for EO state of α5β1 stabilized by 12G10 Fab; assay type: binding; details: 2 µM 12G10 Fab versus basal
T2 construct: endogenous in cells; host or cells: K562 wild type
T2 sequence (P08648 42-894 limits assumed): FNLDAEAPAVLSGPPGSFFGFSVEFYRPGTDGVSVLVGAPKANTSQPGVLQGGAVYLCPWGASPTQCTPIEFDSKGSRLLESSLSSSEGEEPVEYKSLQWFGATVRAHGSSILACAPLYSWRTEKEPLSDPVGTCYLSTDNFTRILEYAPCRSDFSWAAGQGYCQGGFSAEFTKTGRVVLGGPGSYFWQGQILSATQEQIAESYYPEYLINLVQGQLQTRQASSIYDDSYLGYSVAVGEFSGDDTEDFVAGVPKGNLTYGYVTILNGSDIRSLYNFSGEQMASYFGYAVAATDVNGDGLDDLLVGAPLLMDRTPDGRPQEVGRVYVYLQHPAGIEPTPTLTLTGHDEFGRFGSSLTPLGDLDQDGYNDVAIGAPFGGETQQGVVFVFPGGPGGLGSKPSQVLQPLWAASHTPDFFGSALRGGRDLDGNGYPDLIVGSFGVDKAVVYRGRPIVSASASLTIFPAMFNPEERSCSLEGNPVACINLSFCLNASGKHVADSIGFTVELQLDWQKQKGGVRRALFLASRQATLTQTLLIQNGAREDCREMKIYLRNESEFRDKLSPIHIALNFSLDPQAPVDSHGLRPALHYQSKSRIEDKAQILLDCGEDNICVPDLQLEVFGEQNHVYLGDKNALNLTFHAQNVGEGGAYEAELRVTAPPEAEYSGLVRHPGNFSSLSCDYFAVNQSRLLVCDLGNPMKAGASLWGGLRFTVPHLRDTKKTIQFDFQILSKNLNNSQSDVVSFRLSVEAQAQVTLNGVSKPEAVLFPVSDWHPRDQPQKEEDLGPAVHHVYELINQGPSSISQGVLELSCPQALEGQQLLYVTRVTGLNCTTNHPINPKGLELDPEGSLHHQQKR
T2 sequence (P08648 895-1049 partner limits assumed): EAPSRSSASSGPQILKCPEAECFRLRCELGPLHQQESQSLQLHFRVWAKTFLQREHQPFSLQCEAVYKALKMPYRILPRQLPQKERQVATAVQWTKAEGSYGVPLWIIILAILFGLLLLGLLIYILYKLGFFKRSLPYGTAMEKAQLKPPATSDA
T2 sequence (P05556 21-798): as the sequence (P05556 21-798) above
Source text: as §1, §2

BJ-5ta fibroblasts = test: Spreading of BJ-5ta fibroblasts on linear GRRGD-TGT (peer review file); assay type: cell-based, human; details: 100 nM, 1 h
Description: RGT-TGTs is reproduced using the linear RGD, showing that the high tension threshold for cell spreading is not an artifact of ligand cyclization.
Figure R5 | BJ-5ta fibroblasts on linear RGD ligand surfaces. Cells were seeded for one hour on TGTs conjugated […]
with a linear RGD peptide ([…]; GRRGD-TGT). GRRGD-TGT (100 nM) was immobilized on […]
PEG-passivated and neutravidin functionalized surface. GRRGD-54pN was incubated without neutravidin for control. Images (left) and cell area measured from RICM images (right) are shown. Scale bar, 10 μm. […]

integrin α5β1 (EO state) = details: extended-open conformation; read-out: affinity for α5β1 in extended-open conformation; cited from earlier work
Source text: The response of the cytoskeletal machinery is thus not predetermined by cell type, but is highly regulatable by the type of ligand outside the cell. […] Further, by using 264 the specific panels of antibodies, the authors claim that RGD-based adhesion and spreading is dominated by 265 aVb1 integrin in their RGD-dependent system.

[6] = system: integrin α5β1 on intact cells; details: ref Li et al., 2017; read-out: affinity to α5β1 on intact cells; cited from earlier work
Source text: For inhibition studies we used a different subset of inhibitory IPI and Biogen Fabs with RGD-mimetic heavy chain CDR3 sequences (Supplementary Table 1). […] They show selectivities for αVβ1, αVβ3 and αVβ5 ranging from 160 fold to 2000 fold. […] As we show in Fig.5, even though α5β1 has the highest 316 expression level among all the RGD-binding integrins expressed on BJ-5ta cell, it could not mediate cell 317 adhesion and spreading on the cyclo- ...

With `N=C(N)NCCC[C@@H]1NC(=O)[C@H](CCCCN)NC(=O)[C@@H](Cc2ccccc2)NC(=O)[C@H](CC(=O)O)NC(=O)CNC1=O` [cRGDfK, cyclo[Arg-Gly-Asp-D-Phe-Lys]] the “tension threshold for cell spreading” value (BJ-5ta cells [1]; 1 h, nominal Ttol) was > 33 pN, the “spread cells (fraction), sheet 1c” value (BJ-5ta cells [1]; TGT 1 nM) was 0.00565 and the “spread cells (fraction), sheet 1c” value (BJ-5ta cells [1]; TGT 3 nM) was 0.03764. For the same molecule, the “spread cells (fraction), sheet 1c” value (BJ-5ta cells [1]; TGT 10 nM) was 0.4242, the “spread cells (fraction), sheet 1c” value (BJ-5ta cells [1]; TGT 30 nM) was 0.8968 and the “spread cells (fraction), sheet 1c” value (BJ-5ta cells [1]; TGT 100 nM) was 0.9524. The “Spread cells on TGT, 12pN” value (BJ-5ta cells [1]; Ttol 12pN, 1 h, mean, SE in own column, n = 3 independent experiments, given as fraction) was 0.00901, the “Spread cells on TGT, 23pN” value (BJ-5ta cells [1]; Ttol 23pN, 1 h, mean, n = 3, given as fraction) was 0.05 and the “Spread cells on TGT, 33pN” value (BJ-5ta cells [1]; Ttol 33pN, 1 h, mean, n = 3, given as fraction) was 0.0778. The “Spread cells on TGT, 43pN” value (BJ-5ta cells [1]; Ttol 43pN, 1 h, mean, n = 3, given as fraction) was 0.8932, the “Spread cells on TGT, 54pN” value (BJ-5ta cells [1]; Ttol 54pN, 1 h, mean, n = 3, given as fraction) was 0.9524 and the “force needed for activation of β1 integrin to high affinity state” value [2] was “less than 12 pN”. For the same molecule, the “rupture signal with soluble cRGDfK (in words)” value (BJ-5ta cells [3]) was “No cellproduced a significant rupture signal”, the “EO affinity over basal affinity, αVβ1” value [4] was 60 fold and the “EO affinity over basal affinity, α5β1” value [5] was 7000 fold.
In the case of GRRGDLATIHGGK [GRRGD-TGT], the “spreading on linear RGD-TGT (in words)” value (BJ-5ta fibroblasts) is reported as “no spreading for weak TGTs, with tension tolerance below 40 pN”.
For cyclic-ACRGDGWCGK (disulfide), the Kd (integrin α5β1 (EO state)) is listed as 2.2 ± 0.5 nM.
For fibronectin, the Kd [6] is given as 1100 nM.
